Tests used:
[1] = tested on: liver steatosis in obese mice; assay: Chronic treatment on a model of obesity (high fat diet), liver Oil Red O staining; type: in vivo; settings: thymol 20 mg/kg/day for 8 weeks, FIG. 4
Description: Mice were fed with high fat diet (Research Diets D12492: 60% fat, 20% protein, 20% carbohydrates) for 8 weeks. Mice were sacrificed by isofluorane inhalation followed by exsanguination. Livers were collected, embedded in OCT and frozen in isopentane. In order to visualize lipid droplets, liver sections of 10 μm were cut and stained by Oil Red O. Lipids size was calculated using imageJ software

[2] = tested on: zebrafish larvae; assay: Autophagy reporter zebrafish line (LC3-ZsGreen punctae in skeletal muscle); type: in vivo; settings: 16 hours of treatment, LC3 punctae with and without ammonium chloride, FIG. 2
Description: After 16 hours of treatment larvae were anesthetized with 0.016% tricaine and imaged with ImageXpress confocal system at 20× magnification (Molecular Devices). Z stack images were captured for each larva and maximal projection images were produced. Ammonium chloride was added for additional 4 hours to block lysosomal degradation. Images were acquired again as before. In order to quantify autophagic flux, number of LC3 punctae have been calculated in presence and in absence of ammonium chloride with MetaXpress software (Molecular Devices) and normalized by zebrafish area.

[3] = tested on: human Jurkat cells; assay: Autophagic flux (LC3-II, flow cytometry) in Jurkat cells; type: cell-based; settings: thymol 1.95 to 250 μM, LC3-II median fluorescence intensity, FIG. 1
Description: The human lymphocytic T cell line Jurkat (clone E6.1, ATCC TIB-152) has been used to measure autophagic flux in vitro. Cells were grown in RPMI medium with standard conditions (5% CO2, 37° C.) in a humidified atmosphere. For the experiment, cells were washed, counted and incubated at 1*105/well in duplicate in a 96-flat bottom well plate. Experimental conditions included negative controls (0.5% DMSO), rapamycin treatment as positive control (1 uM) and Earle's Balanced Salt Solution (EBSS) as a starvation medium. Cells received Thymol (in RPMI) at different concentrations ranging from 1.95 μM to 250 μM. In parallel, the same experimental conditions were prepared for the incubation with solution A, from the Flow Cellect Autophagy Kit from Merck, now Guava Autophagy LC3 antibody-based kit. The treatment with compound A blocks the lysosomal degradation of LC3 vesicles and is used to measure autophagic flux. Cells were incubated with thymol at 37° for 1.30 h. Solution A was added for additional 30 minutes. Cells were then transferred in a 96 V bottom plate for the LC3 antibody detection using the Guava Autophagy LC3 antibody-based kit, according the manufacturer's instructions. […] Offline analysis was performed with FCS Express Software and results were expressed as the median fluorescence intensity in the FITC channel (related to the amount of LC3-II present in the cells.)

Cc1ccc(C(C)C)c(O)c1 [thymol]
liver steatosis [1]: reduction of liver steatosis | concentration from which thymol induced autophagy in a dose dependent manner [2]: ≥ 50 µM | concentration from which thymol induced autophagy in a dose dependent manner [3]: ≥ 125 µM

— patent publication US20220226258A1, “COMPOSITIONS AND METHODS USING THYMOL AND/OR CARVACROL FOR INDUCTION OF AUTOPHAGY” (SOCIETE DES PRODUITS NESTLE S.A., priority 2019, published 2022)
